Measurements as given in ChEMBL document CHEMBL1201862, “PubChem BioAssay data set” (2004).
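Cultured in 96-well plates, cells were exposed to test compound for 48 hours across five concentrations. GI50 is the concentration that inhibits growth by half.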 Calls of active or inactive are those of the source. Rule as the data show it: active = GI50 up to about 1.1 µM and inactive = higher.

Tests used:
Experiment in all cases: inhibition of tumour cell growth, NCI panel, 48 h
LXFL 529 = test system: LXFL 529
ACHN = test system: ACHN
CAKI-1 = test system: CAKI-1
SW-620 = test system: SW-620
HCC 2998 = test system: HCC 2998
NCI-H226 = test system: NCI-H226
SNB-19 = test system: SNB-19
NCI-H522 = test system: NCI-H522
HT-29 = test system: HT-29
DLD-1 = test system: DLD-1
A549 = test system: A549
SK-OV-3 = test system: SK-OV-3
SN12C = test system: SN12C
SF-539 = test system: SF-539
M19-MEL = test system: M19-MEL
OVCAR-4 = test system: OVCAR-4
K562 = test system: K562
Malme-3M = test system: Malme-3M
RXF 393 = test system: RXF 393
HOP-92 = test system: HOP-92
RPMI-8226 = test system: RPMI-8226
HCT-116 = test system: HCT-116
KM-20L2 = test system: KM-20L2
SF-295 = test system: SF-295
IGROV-1 = test system: IGROV-1
XF498 = test system: XF498
NCI-H23 = test system: NCI-H23
OVCAR-3 = test system: OVCAR-3
SK-MEL-28 = test system: SK-MEL-28
M14 = test system: M14
UACC-62 = test system: UACC-62
SNB-75 = test system: SNB-75
UACC-257 = test system: UACC-257
786-0 = test system: 786-0
DMS-114 = test system: DMS-114
COLO 205 = test system: COLO 205
LOX IMVI = test system: LOX IMVI
EKVX = test system: EKVX
RXF 631 = test system: RXF 631
SK-MEL-2 = test system: SK-MEL-2
HOP-62 = test system: HOP-62
TK-10 = test system: TK-10
SF-268 = test system: SF-268
CCRF-CEM = test system: CCRF-CEM
NCI-H460 = test system: NCI-H460
U-251 = test system: U-251
DMS-273 = test system: DMS-273
OVCAR-5 = test system: OVCAR-5
HOP-18 = test system: HOP-18
MOLT-4 = test system: MOLT-4
SK-MEL-5 = test system: SK-MEL-5
OVCAR-8 = test system: OVCAR-8
KM12 = test system: KM12
HL-60 = test system: HL-60
HCT-15 = test system: HCT-15
SNB-78 = test system: SNB-78
A498 = test system: A498
SR = test system: SR
UO-31 = test system: UO-31

Measured: GI50

N=C(N)N/N=C(/CCN1CCCC1)CC(c1ccccc1)c1c(O)c2ccccc2oc1=O (configuration not stated)
inactive: LXFL 529 > 100 µM | ACHN > 100 µM | CAKI-1 > 100 µM | SW-620 > 100 µM | HCC 2998 > 100 µM | NCI-H226 > 100 µM | SNB-19 > 100 µM | NCI-H522 > 100 µM | HT-29 > 100 µM | DLD-1 > 100 µM | A549 > 100 µM | SK-OV-3 > 100 µM | SN12C > 100 µM | SF-539 > 100 µM | M19-MEL > 100 µM | OVCAR-4 > 100 µM | K562 > 100 µM | Malme-3M > 100 µM | RXF 393 > 100 µM | HOP-92 16.7 µM | RPMI-8226 > 100 µM | HCT-116 > 100 µM | KM-20L2 > 100 µM | SF-295 > 100 µM | IGROV-1 > 100 µM | XF498 > 100 µM | NCI-H23 > 100 µM | OVCAR-3 > 100 µM | SK-MEL-28 > 100 µM | M14 > 100 µM | UACC-62 > 100 µM | SNB-75 > 100 µM | UACC-257 > 100 µM | 786-0 > 100 µM | DMS-114 > 100 µM | COLO 205 > 100 µM | LOX IMVI > 100 µM | EKVX > 100 µM | RXF 631 > 100 µM | SK-MEL-2 > 100 µM | HOP-62 > 100 µM | TK-10 > 100 µM | SF-268 > 100 µM | CCRF-CEM > 10 µM

CCCCC#C[I+]c1ccccc1
8.28 µM: HCT-15
inactive: LXFL 529 12.2 µM | NCI-H460 11.3 µM | ACHN 17.2 µM | CAKI-1 14 µM | HCC 2998 20.1 µM | NCI-H226 15.5 µM | SNB-19 16.9 µM | NCI-H522 3.53 µM | HT-29 15.9 µM | DLD-1 19.5 µM | U-251 16.2 µM | DMS-273 14.1 µM | A549 17.8 µM | SK-OV-3 16.4 µM | SN12C 14.5 µM | OVCAR-5 14.8 µM | HOP-18 14.5 µM | MOLT-4 3.82 µM | SF-539 22.4 µM | M19-MEL 15.7 µM | SK-MEL-5 17.3 µM | OVCAR-4 14.9 µM | K562 15.2 µM | OVCAR-8 16.1 µM | Malme-3M 14.8 µM | RXF 393 20.1 µM | KM12 14.2 µM | HOP-92 11.7 µM | HL-60 15.4 µM | SNB-78 21.8 µM | HCT-116 16 µM | KM-20L2 18.3 µM | SF-295 22.4 µM | IGROV-1 19.9 µM | A498 31 µM | XF498 15.3 µM | NCI-H23 13.6 µM | OVCAR-3 16 µM | SK-MEL-28 17 µM | M14 15.5 µM | UACC-62 17 µM | SNB-75 15.6 µM | UACC-257 16.3 µM | 786-0 15.5 µM | SR 15.1 µM | COLO 205 15.4 µM | LOX IMVI 12.3 µM | EKVX 15.6 µM | UO-31 16.4 µM | RXF 631 9.71 µM | SK-MEL-2 17.7 µM | HOP-62 21.5 µM | TK-10 15.1 µM | SF-268 19.9 µM | CCRF-CEM 4.97 µM

C=CCCC12CCCC(=O)C1Sc1ccc3ccccc3c12 (configuration not stated)
inactive: LXFL 529 15.2 µM | ACHN 24.8 µM | CAKI-1 9.04 µM | SW-620 15.9 µM | HCC 2998 14.1 µM | NCI-H226 14.1 µM | SNB-19 24.4 µM | NCI-H522 15 µM | HT-29 20.1 µM | DLD-1 22.4 µM | U-251 16.6 µM | DMS-273 5.38 µM | A549 10.2 µM | SK-OV-3 21.1 µM | SN12C 14.6 µM | OVCAR-5 27.5 µM | HOP-18 19.7 µM | MOLT-4 13.2 µM | SF-539 15.1 µM | M19-MEL 24.1 µM | SK-MEL-5 > 10 µM | OVCAR-4 28.6 µM | K562 16.8 µM | OVCAR-8 32.1 µM | Malme-3M 16.4 µM | RXF 393 12.2 µM | KM12 7.38 µM | HL-60 7.08 µM | SNB-78 20.8 µM | RPMI-8226 12.9 µM | SF-295 19.4 µM | IGROV-1 33.8 µM | A498 13.1 µM | NCI-H23 19.7 µM | OVCAR-3 13.6 µM | SK-MEL-28 20.7 µM | M14 13.2 µM | UACC-62 11.9 µM | SNB-75 22.8 µM | UACC-257 17.1 µM | 786-0 17.9 µM | COLO 205 12.9 µM | LOX IMVI 13.6 µM | EKVX 21.6 µM | UO-31 16.8 µM | RXF 631 11.6 µM | SK-MEL-2 13.4 µM | HOP-62 19.8 µM | TK-10 20.9 µM | SF-268 31.3 µM | CCRF-CEM 17.7 µM
11.1 µM: HCT-15
